Here are results for 22 molecules from patent US10717716B2, “1,3,4-oxadiazole derivative compounds as histone deacetylase 6 inhibitor, and the pharmaceutical composition comprising the same” (Chong Kun Dang Pharmaceutical Corp., priority 2015, dated 2020).

This experiment has as its target T1, human recombinant HDAC6 (Homo sapiens, UniProt Q9UBN7).
T1 construct: purchased Calbiochem 382180
T1 sequence (Q9UBN7 1-1215): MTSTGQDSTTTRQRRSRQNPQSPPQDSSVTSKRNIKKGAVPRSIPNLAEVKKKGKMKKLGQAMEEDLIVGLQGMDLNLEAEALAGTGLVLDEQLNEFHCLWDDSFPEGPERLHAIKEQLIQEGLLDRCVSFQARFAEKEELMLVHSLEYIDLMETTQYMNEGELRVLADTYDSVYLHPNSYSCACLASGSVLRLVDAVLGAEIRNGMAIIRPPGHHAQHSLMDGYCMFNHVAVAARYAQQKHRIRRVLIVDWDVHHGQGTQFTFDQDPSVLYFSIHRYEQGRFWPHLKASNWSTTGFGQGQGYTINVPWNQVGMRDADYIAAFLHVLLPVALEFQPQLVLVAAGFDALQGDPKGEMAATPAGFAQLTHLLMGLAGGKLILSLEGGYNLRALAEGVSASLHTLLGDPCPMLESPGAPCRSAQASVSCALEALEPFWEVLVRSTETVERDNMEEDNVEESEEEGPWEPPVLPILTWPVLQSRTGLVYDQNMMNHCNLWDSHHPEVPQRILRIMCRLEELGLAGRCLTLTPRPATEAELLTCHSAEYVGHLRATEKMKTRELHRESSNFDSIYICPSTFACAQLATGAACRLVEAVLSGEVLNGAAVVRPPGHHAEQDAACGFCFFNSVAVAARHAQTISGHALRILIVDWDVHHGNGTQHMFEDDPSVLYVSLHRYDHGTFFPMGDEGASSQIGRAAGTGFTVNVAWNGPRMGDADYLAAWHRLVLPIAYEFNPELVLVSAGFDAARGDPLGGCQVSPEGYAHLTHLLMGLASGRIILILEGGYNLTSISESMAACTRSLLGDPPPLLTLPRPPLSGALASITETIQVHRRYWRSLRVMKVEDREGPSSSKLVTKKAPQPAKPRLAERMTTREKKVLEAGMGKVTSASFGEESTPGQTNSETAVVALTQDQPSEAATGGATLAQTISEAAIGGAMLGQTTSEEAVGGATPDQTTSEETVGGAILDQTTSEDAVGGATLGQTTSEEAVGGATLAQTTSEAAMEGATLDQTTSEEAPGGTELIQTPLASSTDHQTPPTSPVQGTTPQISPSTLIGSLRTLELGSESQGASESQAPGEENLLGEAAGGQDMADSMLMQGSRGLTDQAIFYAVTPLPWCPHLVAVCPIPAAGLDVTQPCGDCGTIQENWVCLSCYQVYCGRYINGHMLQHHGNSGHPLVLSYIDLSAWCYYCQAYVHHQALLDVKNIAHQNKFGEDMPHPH
The experiment is described as follows: HDAC6 enzyme activity inhibition assay (HDAC Fluorimetric Drug Discovery Kit). It is filed as biochemical. Conditions: for HDAC6 selectivity (fold): HDAC6 over HDAC1; for pIC50: human recombinant HDAC6, same protocol as HDAC1, read-out: HDAC6. Summed up:
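Human recombinant HDAC1 or HDAC6 (0.3 μg) reacted with 10 μM Fluor de Lys-SIRT1 substrate and 5-fold compound dilutions for 60 min at 30 °C. Developer II added for 30 min, fluorescence read at Ex 360/Em 460; IC50 calculated from the readings.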

pIC50: −log10 of the molar value.

With `CC(C)N(Cc1ccc(-c2nnc(C(F)(F)F)o2)cc1)C(=O)N1CCS(=O)(=O)CC1` [Compound 21397, N-isopropyl-N-(4-(5-(trifluoromethyl)-1,3,4-oxadiazol-2-yl)benzyl)thiomorpholine-4-carboxamide 1,1-dioxide], the “HDAC6 selectivity (fold)” value is listed as 11 fold and the pIC50 is 6.05.
The corresponding values for `CN(Cc1ccc(-c2nnc(C(F)(F)F)o2)cc1)C(=O)N1CCOCC1` [Compound 21398, N-methyl-N-(4-(5-(trifluoromethyl)-1,3,4-oxadiazol-2-yl)benzyl)morpholine-4-carboxamide] are 12 fold and 6.07.
On to `CCN(Cc1ccc(-c2nnc(C(F)(F)F)o2)cc1)C(=O)N1CCOCC1` [Compound 21399, N-ethyl-N-(4-(5-(trifluoromethyl)-1,3,4-oxadiazol-2-yl)benzyl)morpholine-4-carboxamide], for which the “HDAC6 selectivity (fold)” value amounted to 13 fold and the pIC50 was 6.11.
As for `CCCN(Cc1ccc(-c2nnc(C(F)(F)F)o2)cc1)C(=O)N1CCOCC1` [Compound 21400, N-propyl-N-(4-(5-(trifluoromethyl)-1,3,4-oxadiazol-2-yl)benzyl)morpholine-4-carboxamide], the “HDAC6 selectivity (fold)” value stood at 17 fold and the pIC50 was 6.24.
For `CCCCN(Cc1ccc(-c2nnc(C(F)(F)F)o2)cc1)C(=O)N1CCOCC1` [Compound 21401, N-butyl-N-(4-(5-(trifluoromethyl)-1,3,4-oxadiazol-2-yl)benzyl)morpholine-4-carboxamide], the “HDAC6 selectivity (fold)” value is listed as 20 fold and the pIC50 is 6.30.
In the case of `CCCN(C)C(=O)N(Cc1ccc(-c2nnc(C(F)(F)F)o2)cc1)c1ccccc1` [Compound 21402, 1-Methyl-3-phenyl-1-propyl-3-(4-(5-(trifluoromethyl)-1,3,4-oxadiazol-2-yl)benzyl)urea], the “HDAC6 selectivity (fold)” value stood at 45 fold and the pIC50 was 6.65.
For the molecule `O=C(N1CCN(c2ccccn2)CC1)N(Cc1ccc(-c2nnc(C(F)(F)F)o2)cc1)c1ccccc1` [Compound 21403, N-phenyl-4-(pyridin-2-yl)-N-(4-(5-(trifluoromethyl)-1,3,4-oxadiazol-2-yl)benzyl)piperazine-1-carboxamide], the “HDAC6 selectivity (fold)” value was found to be 30 fold and the pIC50 is 6.48.
The corresponding values for `CCOC(=O)CN1[C@H](C)CN(C(=O)N(Cc2ccc(-c3nnc(C(F)(F)F)o3)cc2)c2ccccc2)C[C@@H]1C` [Compound 21404, Ethyl 2-((2S,6R)-2,6-dimethyl-4-(phenyl(4-(5-(trifluoromethyl)-1,3,4-oxadiazol-2-yl)benzyl)carbamoyl)piperazin-1-yl)acetate] are 40 fold and 6.61.
The corresponding values for `O=C(N1CCOCC1)N(Cc1ccc(-c2nnc(C(F)(F)F)o2)cc1)c1cccc(C(F)(F)F)c1` [Compound 21405, N-(4-(5-(trifluoromethyl)-1,3,4-oxadiazol-2-yl)benzyl)-N-(3-(trifluoromethyl)phenyl)morpholine-4-carboxamide] are 28 fold and 6.45.
The corresponding values for `O=C(N1CCOCC1)N(Cc1ccc(-c2nnc(C(F)(F)F)o2)cc1)c1ccc(C(F)(F)F)cc1` [Compound 21406, N-(4-(5-(trifluoromethyl)-1,3,4-oxadiazol-2-yl)benzyl)-N-(4-(trifluoromethyl)phenyl)morpholine-4-carboxamide] are 16 fold and 6.21.
With `O=C(N1CCOCC1)N(Cc1ccc(-c2nnc(C(F)(F)F)o2)cc1)c1cccc(F)c1` [Compound 21407, N-(3-fluorophenyl)-N-(4-(5-(trifluoromethyl)-1,3,4-oxadiazol-2-yl)benzyl)morpholine-4-carboxamide], the “HDAC6 selectivity (fold)” value is reported as 71 fold and the pIC50 is 6.85.
Regarding `O=C(N1CCOCC1)N(Cc1ccc(-c2nnc(C(F)(F)F)o2)cc1)c1cccc(C(F)(F)F)n1` [Compound 21408, N-(4-(5-(trifluoromethyl)-1,3,4-oxadiazol-2-yl)benzyl)-N-(6-(trifluoromethyl)pyridin-2-yl)morpholine-4-carboxamide], the “HDAC6 selectivity (fold)” value is given as 14 fold and the pIC50 was 6.15.
The corresponding values for `O=C(N1CCS(=O)(=O)CC1)N(Cc1ccc(-c2nnc(C(F)(F)F)o2)cc1)c1ccccn1` [Compound 21409, N-(pyridin-2-yl)-N-(4-(5-(trifluoromethyl)-1,3,4-oxadiazol-2-yl)benzyl)thiomorpholine-4-carboxamide 1,1-dioxide] are 33 fold and 6.52.
With `O=C(N1CCS(=O)(=O)CC1)N(Cc1ccc(-c2nnc(C(F)(F)F)o2)cc1Cl)c1ccccc1` [Compound 21410, N-(2-chloro-4-(5-(trifluoromethyl)-1,3,4-oxadiazol-2-yl)benzyl)-N-phenylthiomorpholine-4-carboxamide 1,1-dioxide], the “HDAC6 selectivity (fold)” value came to 12 fold and the pIC50 is 6.08.
With `O=C(N1CCS(=O)(=O)CC1)N(Cc1ccc(-c2nnc(C(F)F)o2)cc1Cl)c1ccccc1` [Compound 21411, N-(2-chloro-4-(5-(difluoromethyl)-1,3,4-oxadiazol-2-yl)benzyl)-N-phenylthiomorpholine-4-carboxamide 1,1-dioxide], the “HDAC6 selectivity (fold)” value turned out to be 5 fold and the pIC50 is 5.67.
On to `O=C(N1CCS(=O)(=O)CC1)N(Cc1ccc(-c2nnc(C(F)(F)F)o2)cc1)c1ccc(C(F)(F)F)cc1` [Compound 21412, N-(4-(5-(trifluoromethyl)-1,3,4-oxadiazol-2-yl)benzyl)-N-(4-(trifluoromethyl)phenyl)thiomorpholine-4-carboxamide 1,1-dioxide], for which the “HDAC6 selectivity (fold)” value was 21 fold and the pIC50 was 6.33.
The corresponding values for `O=C(N1CCS(=O)(=O)CC1)N(Cc1ccc(-c2nnc(C(F)(F)F)o2)cc1)c1ccc(Br)cc1` [Compound 21413, N-(4-bromophenyl)-N-(4-(5-(trifluoromethyl)-1,3,4-oxadiazol-2-yl)benzyl)thiomorpholine-4-carboxamide 1,1-dioxide] are 41 fold and 6.61.
`O=C(N1CCOCC1)N(Cc1ccc(-c2nnc(C(F)(F)F)o2)cc1)c1ccc(F)cc1F` [Compound 21414, N-(2,4-difluorophenyl)-N-(4-(5-(trifluoromethyl)-1,3,4-oxadiazol-2-yl)benzyl)morpholine-4-carboxamide]: the “HDAC6 selectivity (fold)” value was determined as 79 fold and the pIC50 was 6.90.
As to `Cc1ccc(N(Cc2ccc(-c3nnc(C(F)(F)F)o3)cc2)C(=O)N2CCOCC2)c(F)c1` [Compound 21415, N-(2-fluoro-4-methylphenyl)-N-(4-(5-(trifluoromethyl)-1,3,4-oxadiazol-2-yl)benzyl)morpholine-4-carboxamide], the “HDAC6 selectivity (fold)” value was 33 fold and the pIC50 was 6.52.
For `CC(C)(C)OC(=O)N1CC2(CCN(C(=O)N(Cc3ccc(-c4nnc(C(F)(F)F)o4)cc3)c3ccccc3)CC2)C1` [Compound 21416, Ten-butyl 7-(phenyl(4-(5-(trifluoromethyl)-1,3,4-oxadiazol-2-yl)benzyl)carbamoyl)-2,7-diazaspiro[3.5]nonane-2-carboxylate] the same measures were 6 fold and 5.80.
The corresponding values for `O=C(N1CCC2(CC1)CNC2)N(Cc1ccc(-c2nnc(C(F)(F)F)o2)cc1)c1ccccc1` [Compound 21417, N-phenyl-N-(4-(5-(trifluoromethyl)-1,3,4-oxadiazol-2-yl)benzyl)-2,7-diazaspiro[3.5]nonane-7-carboxamide] are 143 fold and 7.15.
On to `CC(=O)N1CC2(CCN(C(=O)N(Cc3ccc(-c4nnc(C(F)(F)F)o4)cc3)c3ccccc3)CC2)C1` [Compound 21418, 2-Acetyl-N-phenyl-N-(4-(5-(trifluoromethyl)-1,3,4-oxadiazol-2-yl)benzyl)-2,7-diazaspiro[3.5]nonane-7-carboxamide], for which the “HDAC6 selectivity (fold)” value is listed as 65 fold and the pIC50 is 6.81.
